# In patent publication US20190374505A1, “METHODS AND COMPOSITIONS FOR THE TREATMENT OF NON-ALCOHOLIC STEATOHEPATITIS” (Vivus, Inc., priority 2016, published 2019):
# Where “and” joins values, the source holds several entries; their conditions need not be identical. Equal entries are not always repeated.
# Experiments:
# Format in all cases: in vivo, mouse
# STAM model mice (NASH) [1] = experiment: STAM model mice: liver histopathology (HE/NAS, Sirius red, Oil red, F4/80)
# Excerpt: (§1) Having observed the improvements in markers that correlate with liver disease in patients treated with PHEN/TPM, animal studies in the STAM model for NAFLD/NASH were preformed to look more specifically at liver morphology and function following treatment with PHEN/TPM. The STAM model was selected because it allows a specific examination of the effects of drug treatment, in this example PHEN/TPM, on non-alcoholic steatohepatitis. The STAM model is a non-genetic animal model of human NASH with features of diabetic background, increased. NAFLD activity score (NAS), perivenular and pericellular fibrosis in Zone 3, and a high incidence of hepatocellular carcinoma (Fujii M. et al., Med. Mel. Morphol., 2013; 46: 141). The model is induced by a combination of chemical and dietary interventions in the mice. In this example, NASH was induced in 30 male mice by a single subcutaneous injection of 200 μg streptozotocin (STZ, Sigma-Aldrich, USA) solution 2 days after birth and feeding with a high fat diet (HFD, 57 kcal % fat, cat#: HFD32, CLEA Japan, Japan) after 4 weeks of age. The mice were treated with either vehicle, PHEN/TPM or Telmisartan.
# (§2) Phentermine (PHEN) and Topiramate (TPM) were weighed and dissolved in distilled water and 0.5% methylcellulose, respectively. Telmisartan (MICARDIS®) was purchased from Boehringer Ingelheim GmbH (Germany) and suspended in milli-Q water. Vehicle, PHEN and TPM were orally administered in a volume of 5 mL/kg. Telmisartan was orally administered in a volume of 10 mL/kg. PHEN was administered at a dose of 15 mg/kg once daily. TPM was administered at a dose of 100 mg/kg once daily. Telmisartan was administered at a dose of 5 mg/kg once daily.
# Histopathology analysis. For HE staining, sections were cut from paraffin blocks of liver tissue prefixed in Bouin's solution and stained with Lillie-Mayers Hematoxylin (Muto Pure Chemicals, japan) and eosin solution (Wako Pure Chemical industries). NAS was calculated according to the criteria of Kleiner (Kleiner D E. et al., Hepatology, 2005; 41: 1313). To visualize collagen deposition, Bouin's fixed liver sections were stained using picro-Sirius red solution (Waldeck, Gelman)). To visualize macro- and microvesicular fat, sections were cut from frozen liver tissues embedded in Tissue-Tek O.C.T. compound (Sakura Finetek Japan, Japan), and stained with Oil Red 0 (SigmaAldrich). For immunohistochemistry, sections were cut from frozen liver tissues embedded in Tissue-Tek O.C.T. compound and fixed in acetone. Endogenous peroxidase activity was blocked using 0.03% H2O2 for 5 minutes, followed by incubation with Block Ace (Dainippon Sumitomo Pharma, Japan) for 10 minutes. The sections were incubated with a 200-fold dilution of anti-F4/80 antibody (BMA Biomedicals, Switzerland) 1 hour at room temperature. After incubation with secondary antibody (HRP-Goat anti-rat antibody, Invitrogen, USA), enzyme-substrate reactions were performed using 3, 3′-diaminobenzidine/H202 solution (Nichirei, Japan). For quantitative analyses of fibrosis, inflammation and fat deposition areas, bright field images of Sirius red-stained, F4/80-immunostained and oil red-stained sections were captured around the central vein using a digital camera (DFC280; Leica, Germany) at 200-fold magnification, and the positive areas in 5 fields/section were measured using ImageJ software (National Institute of Health, USA).
# (§3) The three treatment groups were as follows: Group 1: Vehicle: 10 NASH mice were orally administered vehicle [distilled water and 0.5% methylcellulose in a volume of 5 mL./kg, respectively] once daily from 5 to 11 weeks of age. Group 2: PHEN/WM. 10 NASH mice were orally administered distilled water supplemented with PHEN at a dose of 15 mg/kg, and 0.5% methylcellulose supplemented with TPM at a dose of 100 mg/kg once daily from 5 to 11 weeks of age. Group 3: Telmisartan. […]
# STAM model mice (NASH) [2] = experiment: STAM model mice: blood biochemistry and liver triglyceride content; conditions: day of sacrifice, mean ± SD
# Excerpt: as §1
# as §2, with “TPM was administered at a dose of 100 mg/kg once daily. Telmisartan was administered at a dose of 5 mg/kg once daily.” left out
# Measurement of blood biochemistry. Non-fasting blood glucose was measured in whole blood using LIFE CHECK (EIDrA, Japan). […] The plasma ALT (alanine aminotransferase) and AST (aspartate aminotransferase) levels were measured by FUJI DRI CHEM 7000 (FujiFilm, Japan) Measurement of liver triglyceride content Liver total lipid-extracts were obtained by Folch's method (Folch J. el al., J. Bioi. Chern. 1957; 226: 497). […] Liver triglyceride levels were measured by Triglyceride E-test (Wako Pure Chemical Industries, Japan). […]
# [3] = tested on: liver mRNA of TNF-α, TIMP-1, Alpha-SMA, MMP-9, collagen type 1, MCP-1; experiment: STAM model mice: liver gene expression analysis (real-time PCR, normalized to 36B4); conditions: vehicle average = 1.0, mean ± SD
# Excerpt: as §1, §2
# Total RNA was extracted from liver samples using RNAiso (Takara Bio, Japan) and SV total RNA isolation kit (Promega, USA) according to the manufacturer's instructions. One/1 g of RNA was reverse-transcribed using a reaction mixture containing 4.4 mM MgCb (F. Hoffmann-La Roche, Switzerland), 40 U RNase inhibitor (Toyobo, Japan), 0.5 mM dNTP (Promega), 6.28 µM random hexamer (Promega), 5× first strand buffer (Promega), 10 mM dithiothreitol (Invitrogen, USA) and 200 U MMLV-RT (Invitrogen) in a final volume of 20 IIL. The reaction was carried out for 1 hour at 37° C., followed by 5 minutes at 99° C. Real-time PCR was performed using real-time PCR DICE and SYBR premix Tag (Takara Bio). To calculate the relative mRNA expression level, the expression of each gene was normalized to that of reference gene 36B4 (gene symbol: RplpO). To express data as fold-change relative to the Vehicle-control group, the data were standardized so that average values of the Vehicle group become 1.0.
# The three treatment groups were as follows: Group 1: Vehicle: 10 NASH mice were orally administered vehicle [distilled water and 0.5% methylcellulose in a volume of 5 mL./kg, respectively] once daily from 5 to 11 weeks of age. Group 2: PHEN/WM. 10 NASH mice were orally administered distilled water supplemented with PHEN at a dose of 15 mg/kg, and 0.5% methylcellulose supplemented with TPM at a dose of 100 mg/kg once daily from 5 to 11 weeks of age. Group 3: Telmisartan. 10 NASH mice were orally administered pure water supplemented with Telmisartan at a dose of 5 mg/kg once daily from 5 to 11 weeks of age.
# The values in Table 7 were calculated by dividing Target by 36B4 for each animal. An average was calculated in the vehicle group. The initial calculations of Target/36B4 was divided by the vehicle average so the vehicle average becomes 1.0. This second Target/36B4 represents a fold-change of Target gene relative to the vehicle average.
# STAM model mice (NASH) [4] = experiment: STAM model mice: viability, body weight, food consumption, liver weight
# Excerpt: as §1, §2
# C57BL16 mice (15-day-pregnant female) were obtained from Japan SLC (Japan) and were housed in accordance with the Japanese Pharmacological Society Guidelines for Animal Use. The animals were maintained in a SPF facility under controlled conditions of temperature (23±2° C.), humidity (45±10%), lighting (12-hour artificial light and dark cycles; light from 8:00 to 20:00) and air exchange. A high pressure was maintained in the experimental room to prevent contamination of the facility. The animals were housed in TPX cages (CLEA Japan) with a maximum of 4 mice per cage. Sterilized Paper-Clean (Japan SLC) was used for bedding and replaced once a week.
# Sterilized solid HFD was provided ad libitum, being placed in a metal lid on the top of the cage. Pure water was provided ad libitum from a water bottle equipped with a rubber stopper and a sipper tube. Water bottles were replaced once a week, cleaned and sterilized in an autoclave and reused. Mice were identified by numbers engraved on earrings. Each cage was labeled with a specific identification code.
# as §3
# The viability, clinical signs and behavior were monitored daily. […]
# The body weight of each mouse was recorded daily and food consumption was recorded 3 times weekly during the treatment period. […]
# [5] = day of sacrifice, mean ± SD, PHEN 15 + TPM 100 mg/kg (n=6), Telmisartan 5 mg/kg (n=8)
compound,measurement,setting,value
CCCc1nc2c(C)cc(-c3nc4ccccc4n3C)cc2n1Cc1ccc(-c2ccccc2C(=O)O)cc1 [Telmisartan],Fibrosis area (Sirius-red),STAM model mice (NASH) [1]; mean ± SD,0.81% and 0.81 ± 0.39%
same,Inflammation area (F4/80),STAM model mice (NASH) [1]; mean ± SD,1.48 ± 0.76%
same,Number of mice with Steatosis score 0,STAM model mice (NASH) [1]; score 0 = <5%,2
same,Number of mice with Lobular Inflammation score 0,STAM model mice (NASH) [1]; score 0 = No foci,2
same,Number of mice with Steatosis score 1,STAM model mice (NASH) [1]; score 1 = 5-33%,6
same,Number of mice with Lobular Inflammation score 1,STAM model mice (NASH) [1]; score 1 = <2 foci/200x,2
same,Number of mice with Hepatocyte Ballooning score 1,STAM model mice (NASH) [1]; score 1 = Few balloon cells,4
same,Number of mice with Lobular Inflammation score 2,STAM model mice (NASH) [1]; score 2 = 2-4 foci/200x,4
same,Number of mice with Hepatocyte Ballooning score 2,STAM model mice (NASH) [1]; score 2 = Many cells/prominent ballooning,4
same,Plasma ALT,STAM model mice (NASH) [2],39 U/L and 39 ± 34 U/L
same,Plasma AST,STAM model mice (NASH) [2],229 U/L and 229 ± 176 U/L
same,Whole blood glucose,STAM model mice (NASH) [2]; non-fasting,768 mg/dL and 768 ± 199 mg/dL
same,"Alpha-SMA/36B4 mRNA expression, fold change relative to Vehicle group",[3],0.54 and 0.54 ± 0.40
same,"Collagen Type 1/36B4 mRNA expression, fold change relative to Vehicle group",[3],0.80 and 0.80 ± 0.11
same,"MCP-1/36B4 mRNA expression, fold change relative to Vehicle group",[3],0.44 and 0.44 ± 0.23
same,"MMP-9/36B4 mRNA expression, fold change relative to Vehicle group",[3],1.21 and 1.21 ± 0.36
same,"TIMP-1/36B4 mRNA expression, fold change relative to Vehicle group",[3],0.66 and 0.66 ± 0.46
same,"TNF-α/36B4 mRNA expression, fold change relative to Vehicle group",[3],0.75 and 0.75 ± 0.17
same,Mean body weight reduced compared to the Vehicle group,STAM model mice (NASH) [4]; day of sacrifice,11.4%
same,Liver-to-body weight ratio,"STAM model mice (NASH) [4]; day of sacrifice, mean ± SD",6.2 ± 1.1%
same,Body weight,STAM model mice (NASH) [4]; [5],18.7 g and 18.7 ± 1.7 g
same,Liver weight,STAM model mice (NASH) [4]; [5],1156 ± 210 mg
same,Mice found dead before reaching week 11,"STAM model mice (NASH) [4]; treatment period 5 to 11 weeks of age, oral once daily, PHEN 15 mg/kg + TPM 100 mg/kg, Telmisartan 5 mg/kg",Two out of 10
